Key:
Format in all cases: in vivo
rice [1] = assay: Safening effect against butachlor injury to pre-soaked rice, soil surface application, flooded pots (Example 16, Table II); parameters: key: herbicide injury alone + safener injury alone (max 100) minus combined injury; conditions: safening agent 1.12 kg/h, ~21 days, mean of two replicates
Procedure: (§1) A good grade of top soil is placed in a container and compacted to a depth of approximately 1.27 cm. from the top of said container. A predetermined number of rice seeds to be tested are placed on top of the soil. A quantity of soil sufficient to substantially fill the container is measured and placed in a second container. A measured quantity of the safening agent dispersed or dissolved in a suitable carrier is applied to the soil in the second container. A measured quantity of butachlor dispersed or dissolved in a suitable carrier is then sprayed on the soil already treated with the safening agent. The soil containing the safening agent and herbicide is thoroughly mixed. This mixing is sometimes referred to as incorporation of the herbicide and safening agent into the soil. The mixing or incorporation provides a substantially uniform distribution of the safening agent and herbicide throughout the soil. The seeds are covered with the soil containing the safening agent and herbicide and the pans are leveled. The pans are then placed on a sand bench in the greenhouse and watered from below as needed. The plants are observed at the end of approximately 21 days and the results in terms of percent inhibition of each seed lot are recorded. For each test series a pan of plants is also prepared containing no herbicide and no safening agent as a control. Additionally, for each test, a pan of plants is prepared with soil covering the seed containing no herbicide and only the measured amount of safening agent being incorporated into the soil covering the seeds to ascertain any herbicidal effect of the safening agent alone. For each series of tests the herbicidal effect of the herbicide is observed from pans of plants treated with the same quantity of herbicide alone. The "safening effect" is determined by adding the hericidal effect of the herbicide when applied alone to the herbicidal effect of the safening agent when applied alone (in no instance, however, will this sum be greater than 100) and substracting from that the herbicidal effect obtained when the herbicide and safening agent are incorporated into the soil as discussed above.
A good grade of top soil is placed in a plastic pot. A measured quantity of the safening agent dispersed or dissolved in a suitable carrier is sprayed on the soil surface. A measured quantity of butachlor herbicide dissolved in a solvent is sprayed on the soil surface. Presoaked rice is seeded into the pots that were previously flooded with water and the water level lowered below the soil surface for one week. The pots are flooded at least up to the soil surface for the duration of the test. The plants are observed at the end of approximately 21 days and the results in terms of the percent inhibition of rice is recorded. As in Example 15, for each test pots are prepared containing soil treated only with butachlor. For each test, pots are also prepared containing soil treated only with the safening agent. Pots are also prepared in which the soil is not treated with either the herbicide or the safening agent. The safening effect is determined in accordance with Example 15.
Table II summarizes the results obtained when the compounds of the invention were tested in accordance with the procedure of Example 16.

Barnyard Grass = assay: Percent inhibition of barnyard grass, mixture incorporated in soil cover layer (Example 19, Table V); conditions: ~21 days
Text: (§2) 5.08 cm. of a good grade of top soil is placed in a 7.62 cm. deep plastic pot. A predetermined number of weed seeds and rice seeds are applied to the soil surface. Butachlor and ethyl 2-chloro-4-phenyl-5-thiazolecarboxylate are applied to a soil cover layer as a mixture and incorporated by shaking the treated soil cover layer in a plastic bag. The cover layers were then placed on the pre-seeded pots. The plants are observed at the end of approximately 21 days and the results in terms of percent inhibition recorded. For each test, pots are prepared containing soil treated only with butachlor. For each test, pots are prepared containing soil treated only with the safening agent. Pots are also prepared with untreated soil.

Foxtail = assay: Percent inhibition of foxtail, mixture incorporated in soil cover layer (Example 19, Table V); conditions: ~21 days
Text: as §2

rice [2] = assay: Safening effect against butachlor injury to rice, safening agent and herbicide incorporated in soil (Example 15, Table I); parameters: key: herbicide-alone + safener-alone effect (max 100) minus combined effect; conditions: safening agent 8.96 kg/h; butachlor 4.48 kg/h; ~21 days
Procedure: as §1
Table I summarizes the results obtained when the compounds of the invention were tested in accordance with the procedure of Example 15.

Crabgrass = assay: Percent inhibition of crabgrass, mixture incorporated in soil cover layer (Example 19, Table V); conditions: ~21 days
Text: as §2

Panicum = assay: Percent inhibition of panicum, mixture incorporated in soil cover layer (Example 19, Table V); conditions: ~21 days
Text: as §2

rice [3] = assay: Percent inhibition of rice, mixture incorporated in soil cover layer (Example 19, Table V); conditions: ~21 days
Text: as §2

[4] = safening agent 8.96 kg/h + butachlor 2.24 kg/h
[5] = safening agent 8.96 kg/h + butachlor 4.48 kg/h
[6] = safening agent 8.96 kg/h + butachlor 8.96 kg/h

Question: How did the “Safening Effect” value (rice [1]; butachlor 0.14 kg/h) turn out when `CCOC(=O)c1sc(Cl)nc1-c1ccccc1` [Example 1, Ethyl 2-Chloro-4-Phenyl-5-Thiazolecarboxylate] was run?
Answer: 78

Question: And the “Safening Effect” value (rice [1]; butachlor 0.56 kg/h)?
Answer: 99

Question: And the “Percent Inhibition, Barnyard Grass” value (Barnyard Grass; [4])?
Answer: 100%

Question: What about the “Percent Inhibition, Barnyard Grass” value (Barnyard Grass; [5]) of the same compound?
Answer: 100%

Question: And the “Percent Inhibition, Barnyard Grass” value (Barnyard Grass; [6])?
Answer: 100%

Question: What about the “Percent Inhibition, Barnyard Grass” value (Barnyard Grass; safening agent alone 8.96 kg/h) of the same compound?
Answer: 0%

Question: And the “Percent Inhibition, Foxtail” value (Foxtail; [4])?
Answer: 100%

Question: What about the “Percent Inhibition, Foxtail” value (Foxtail; [5]) of the same compound?
Answer: 100%

Question: And the “Percent Inhibition, Foxtail” value (Foxtail; [6])?
Answer: 100%

Question: And the “Percent Inhibition, Foxtail” value (Foxtail; safening agent alone 8.96 kg/h)?
Answer: 0%

Question: What about the “Safening Effect” value (rice [2]) of the same compound?
Answer: 75

Question: And the “Percent Inhibition, Crabgrass” value (Crabgrass; [4])?
Answer: 100%

Question: What about the “Percent Inhibition, Crabgrass” value (Crabgrass; [5]) of the same compound?
Answer: 100%

Question: And the “Percent Inhibition, Crabgrass” value (Crabgrass; [6])?
Answer: 100%

Question: And the “Percent Inhibition, Crabgrass” value (Crabgrass; safening agent alone 8.96 kg/h)?
Answer: 0%

Question: And the “Percent Inhibition, Panicum” value (Panicum; [4])?
Answer: 100%

Question: What about the “Percent Inhibition, Panicum” value (Panicum; [5]) of the same compound?
Answer: 100%

Question: What about the “Percent Inhibition, Panicum” value (Panicum; [6]) of the same compound?
Answer: 100%

Question: What about the “Percent Inhibition, Panicum” value (Panicum; safening agent alone 8.96 kg/h) of the same compound?
Answer: 0%

Question: And the “Percent Inhibition, Rice” value (rice [3]; [4])?
Answer: 8%

Question: And the “Percent Inhibition, Rice” value (rice [3]; [5])?
Answer: 43%

Question: What about the “Percent Inhibition, Rice” value (rice [3]; [6]) of the same compound?
Answer: 45%

Question: What about the “Percent Inhibition, Rice” value (rice [3]; safening agent alone 8.96 kg/h) of the same compound?
Answer: 0%

Reference: patent US4336389A, “2-Substituted-4-aryl-5-thiazolecarboxylic acids and their derivatives as safening agents” (Monsanto Company, priority 1978, dated 1982)
